Converted amounts (≈) assume the structure as drawn. The source made the active and inactive calls. The rule behind the calls is not given here. Peptide text beside a SMILES is read from it. * marks the point of attachment. Myristoyl = CCCCCCCCCCCCCC(=O)*; Lauroyl = CCCCCCCCCCCC(=O)*; Octanoyl = CCCCCCCC(=O)*; Hexanoyl = CCCCCC(=O)*
Assays:
Pseudomonas aeruginosa [1] = test: Antibacterial activity against Pseudomonas aeruginosa LES431 clinical isolate after 16 to 20 hrs by microdilution assay; assay type: functional
Pseudomonas aeruginosa [2] = test: Antibacterial activity against Pseudomonas aeruginosa VW1633 clinical isolate after 16 to 20 hrs by microdilution assay; assay type: functional
Pseudomonas aeruginosa [3] = test: Antibacterial activity against Pseudomonas aeruginosa KD491 clinical isolate after 16 to 20 hrs by microdilution assay; assay type: functional
Pseudomonas aeruginosa [4] = test: Antibacterial activity against Pseudomonas aeruginosa VW1471 clinical isolate after 16 to 20 hrs by microdilution assay; assay type: functional
Pseudomonas aeruginosa [5] = test: Antibacterial activity against Pseudomonas aeruginosa MIDLANDS clinical isolate after 16 to 20 hrs by microdilution assay; assay type: functional
Pseudomonas aeruginosa [6] = test: Antibacterial activity against Pseudomonas aeruginosa kl 3.2 clinical isolate after 16 to 20 hrs by microdilution assay; assay type: functional
Pseudomonas aeruginosa [7] = test: Antibacterial activity against Pseudomonas aeruginosa VW1485 clinical isolate after 16 to 20 hrs by microdilution assay; assay type: functional
Pseudomonas aeruginosa [8] = test: Antibacterial activity against Pseudomonas aeruginosa VW1540 clinical isolate after 16 to 20 hrs by microdilution assay; assay type: functional
Pseudomonas aeruginosa [9] = test: Antibacterial activity against Pseudomonas aeruginosa PAO1 clinical isolate after 16 to 20 hrs by microdilution assay; assay type: functional
Pseudomonas aeruginosa [10] = test: Antibacterial activity against Pseudomonas aeruginosa PAO1 clinical isolate assessed as delay in growth rate in exponential phase of bacterial growth curve at 0.25 ug/ml measured every 15 mins by microtiter plate reader method; assay type: functional, organism-based
Pseudomonas aeruginosa [11] = test: Antibacterial activity against Pseudomonas aeruginosa D599 clinical isolate after 16 to 20 hrs by microdilution assay; assay type: functional
Pseudomonas aeruginosa [12] = test: Antibacterial activity against Pseudomonas aeruginosa VW313 clinical isolate after 16 to 20 hrs by microdilution assay; assay type: functional
Pseudomonas aeruginosa [13] = test: Antibacterial activity against Pseudomonas aeruginosa kl 1.1 clinical isolate after 16 to 20 hrs by microdilution assay; assay type: functional
Pseudomonas aeruginosa [14] = test: Antibacterial activity against Pseudomonas aeruginosa LESB58 clinical isolate after 16 to 20 hrs by microdilution assay; assay type: functional
Pseudomonas aeruginosa [15] = test: Antibacterial activity against Pseudomonas aeruginosa VW0247 clinical isolate after 16 to 20 hrs by microdilution assay; assay type: functional
Pseudomonas aeruginosa [16] = test: Antibacterial activity against Pseudomonas aeruginosa KD491 clinical isolate assessed as delay in growth rate in exponential phase of bacterial growth curve at 1 ug/ml measured every 15 mins by microtiter plate reader method; assay type: functional, organism-based
Pseudomonas aeruginosa [17] = test: Antibacterial activity against Pseudomonas aeruginosa KD557 clinical isolate after 16 to 20 hrs by microdilution assay; assay type: functional
Pseudomonas aeruginosa [18] = test: Antibacterial activity against Pseudomonas aeruginosa LESB58 clinical isolate assessed as delay in growth rate in exponential phase of bacterial growth curve at 1 ug/ml measured every 15 mins by microtiter plate reader method; assay type: functional, organism-based
Pseudomonas aeruginosa [19] = test: Antibacterial activity against Pseudomonas aeruginosa VW1538 clinical isolate after 16 to 20 hrs by microdilution assay; assay type: functional
Pseudomonas aeruginosa [20] = test: Antibacterial activity against Pseudomonas aeruginosa LES400 clinical isolate after 16 to 20 hrs by microdilution assay; assay type: functional
Pseudomonas aeruginosa [21] = test: Antibacterial activity against Pseudomonas aeruginosa Clone C clinical isolate assessed as delay in growth rate in exponential phase of bacterial growth curve at 0.25 ug/ml measured every 15 mins by microtiter plate reader method; assay type: functional, organism-based
Pseudomonas aeruginosa [22] = test: Antibacterial activity against Pseudomonas aeruginosa VW178 clinical isolate after 16 to 20 hrs by microdilution assay; assay type: functional
Pseudomonas aeruginosa [23] = test: Antibacterial activity against Pseudomonas aeruginosa Clone C clinical isolate after 16 to 20 hrs by microdilution assay; assay type: functional
Pseudomonas aeruginosa [24] = test: Antibacterial activity against Pseudomonas aeruginosa VW1501 clinical isolate after 16 to 20 hrs by microdilution assay; assay type: functional

Compound | MIC (Pseudomonas aeruginosa [1]) [µg/mL] | MIC (Pseudomonas aeruginosa [2]) [µg/mL] | MIC (Pseudomonas aeruginosa [3]) [µg/mL] | MIC (Pseudomonas aeruginosa [4]) [µg/mL] | MIC (Pseudomonas aeruginosa [5]) [µg/mL] | MIC (Pseudomonas aeruginosa [6]) [µg/mL] | MIC (Pseudomonas aeruginosa [7]) [µg/mL] | MIC (Pseudomonas aeruginosa [8]) [µg/mL] | MIC (Pseudomonas aeruginosa [9]) [µg/mL] | MIC (Pseudomonas aeruginosa [11]) [µg/mL] | MIC (Pseudomonas aeruginosa [12]) [µg/mL] | MIC (Pseudomonas aeruginosa [13]) [µg/mL] | MIC (Pseudomonas aeruginosa [14]) [µg/mL] | MIC (Pseudomonas aeruginosa [15]) [µg/mL] | MIC (Pseudomonas aeruginosa [17]) [µg/mL] | MIC (Pseudomonas aeruginosa [20]) [µg/mL] | MIC (Pseudomonas aeruginosa [22]) [µg/mL] | MIC (Pseudomonas aeruginosa [23]) [µg/mL] | MIC (Pseudomonas aeruginosa [24]) [µg/mL] | also measured
CCCCCC(=O)NCCCC[C@H](NC(=O)[C@H](Cc1c[nH]c2ccccc12)NC(=O)[C@H](CCCNC(=N)N)NC(=O)[C@H](Cc1c[nH]c2ccccc12)NC(=O)[C@H](CCCNC(=N)N)NC(=O)[C@H](Cc1c[nH]c2ccccc12)NC(=O)[C@@H](N)CCCNC(=N)N)C(=O)O (H-RWRWRWK(Hexanoyl)-OH) | > 128 | 16 (≈ 12.6 µM) | 32 (≈ 25.2 µM) |  |  |  |  |  |  |  |  |  |  |  |  |  |  |  |  | 
CCCCCCCCCCCCCC(=O)NCCCC[C@H](NC(=O)[C@H](Cc1c[nH]c2ccccc12)NC(=O)[C@H](CCCNC(=N)N)NC(=O)[C@H](Cc1c[nH]c2ccccc12)NC(=O)[C@H](CCCNC(=N)N)NC(=O)[C@H](Cc1c[nH]c2ccccc12)NC(=O)[C@@H](N)CCCNC(=N)N)C(=O)O (H-RWRWRWK(Myristoyl)-OH) | 128 (≈ 92.5 µM) | > 128 | > 128 |  |  |  |  |  |  |  |  |  |  |  |  |  |  |  |  | 
NC[C@H]1O[C@H](O[C@H]2[C@H](O)[C@@H](O[C@H]3O[C@H](CO)[C@@H](O)[C@H](N)[C@H]3O)[C@H](N)C[C@@H]2N)[C@H](N)C[C@@H]1O [TOBRAMYCIN] | 2 (≈ 4.28 µM) | 0.125 (≈ 0.267 µM) | 8 (≈ 17.1 µM) | 8 (≈ 17.1 µM) | 2 (≈ 4.28 µM) | 16 (≈ 34.2 µM) | 16 (≈ 34.2 µM) | 0.125 (≈ 0.267 µM) | 2 (≈ 4.28 µM) | 0.5 (≈ 1.07 µM) | 16 (≈ 34.2 µM) | 4 (≈ 8.56 µM) | 8 (≈ 17.1 µM) | 4 (≈ 8.56 µM) | 1 (≈ 2.14 µM) | 8 (≈ 17.1 µM) | 32 (≈ 68.4 µM) | 1 (≈ 2.14 µM) | 4 (≈ 8.56 µM) | Activity (Pseudomonas aeruginosa [10]): Active; Activity (Pseudomonas aeruginosa [16]): Active; Activity (Pseudomonas aeruginosa [18]): Active; MIC (Pseudomonas aeruginosa [19]): 8 µg/mL (≈ 17.1 µM); Activity (Pseudomonas aeruginosa [21]): Active
CCCCCCCCCCCC(=O)NCCCC[C@H](NC(=O)[C@H](Cc1c[nH]c2ccccc12)NC(=O)[C@H](CCCNC(=N)N)NC(=O)[C@H](Cc1c[nH]c2ccccc12)NC(=O)[C@H](CCCNC(=N)N)NC(=O)[C@H](Cc1c[nH]c2ccccc12)NC(=O)[C@@H](N)CCCNC(=N)N)C(=O)O (H-RWRWRWK(Lauroyl)-OH) | 64 (≈ 47.2 µM) | 32 (≈ 23.6 µM) | > 128 |  |  |  |  |  |  |  |  |  |  |  |  |  |  |  |  | 
CCCCCCCC(=O)NCCCC[C@H](NC(=O)[C@H](Cc1c[nH]c2ccccc12)NC(=O)[C@H](CCCNC(=N)N)NC(=O)[C@H](Cc1c[nH]c2ccccc12)NC(=O)[C@H](CCCNC(=N)N)NC(=O)[C@H](Cc1c[nH]c2ccccc12)NC(=O)[C@@H](N)CCCNC(=N)N)C(=O)O (H-RWRWRWK(Octanoyl)-OH) | 128 (≈ 98.5 µM) | 16 (≈ 12.3 µM) | 16 (≈ 12.3 µM) |  |  |  |  |  |  |  |  |  |  |  |  |  |  |  |  | 
C[C@@H](O)[C@H]1C(=O)N2C(C(=O)O)=C(S[C@@H]3CN[C@H](C(=O)N(C)C)C3)[C@H](C)[C@H]12 [MEROPENEM] | 8 (≈ 20.9 µM) | 1 (≈ 2.61 µM) | 16 (≈ 41.7 µM) | 32 (≈ 83.4 µM) | 16 (≈ 41.7 µM) | 4 (≈ 10.4 µM) | 0.25 (≈ 0.652 µM) | 1 (≈ 2.61 µM) | 2 (≈ 5.22 µM) | 0.5 (≈ 1.3 µM) | 16 (≈ 41.7 µM) | 4 (≈ 10.4 µM) | 2 (≈ 5.22 µM) | 0.25 (≈ 0.652 µM) | 1 (≈ 2.61 µM) | 2 (≈ 5.22 µM) | 2 (≈ 5.22 µM) | 2 (≈ 5.22 µM) | 0.25 (≈ 0.652 µM) | 
CC(C)(O/N=C(\C(=O)N[C@@H]1C(=O)N2C(C(=O)[O-])=C(C[n+]3ccccc3)CS[C@H]12)c1csc(N)n1)C(=O)O [CEFTAZIDIME] | 256 (≈ 468 µM) | > 256 | > 256 | 128 (≈ 234 µM) | 64 (≈ 117 µM) | 2 (≈ 3.66 µM) | 8 (≈ 14.6 µM) | 16 (≈ 29.3 µM) | 1 (≈ 1.83 µM) | 1 (≈ 1.83 µM) | > 256 | 2 (≈ 3.66 µM) | 256 (≈ 468 µM) | 16 (≈ 29.3 µM) | 2 (≈ 3.66 µM) | 32 (≈ 58.5 µM) | 2 (≈ 3.66 µM) | 2 (≈ 3.66 µM) | 4 (≈ 7.32 µM) | MIC (Pseudomonas aeruginosa [19]): 8 µg/mL (≈ 14.6 µM)

— ChEMBL document CHEMBL3779859, “Synergistic activity of a short lipidated antimicrobial peptide (lipoAMP) and colistin or tobramycin against Pseudomonas aeruginosa from cystic fibrosis patients” (Medchemcomm, 2016)
